In publication PMC8322070, “A novel orally active HDAC6 inhibitor T-518 shows a therapeutic potential for Alzheimer’s disease and tauopathy in mice” (Scientific Reports, 2021):

Assays:
class I HDACs = test: HDAC selectivity panel (Reaction Biology Corporation), class I; format: biochemical; details: heat map Fig. 2A
Method: Recombinant HDAC6, HDAC7, HDAC1 were obtained from SignalChem Pharmaceutical Inc. (Richmond, BC, Canada), and recombinant human HDAC4 was prepared at Takeda pharmaceutical company. One μL of T-518 diluted with DMSO was added to 75 μL of assay buffer (24 mM Tris–HCl (pH 7.5), 135 mM NaCl, 0.35 mM KCl, 1 mM MgCl2, 0.01% Tween 20, 0.6 mM GSH) in 384 well plates. Two μL of diluted compounds were added to 384 well plates and 2 μL of recombinant HDAC enzymes was added and then centrifuged at 1000 rpm for 10 s. The final concentrations of each HDAC enzyme were as follows, human HDAC1, 170 pM; human HDAC6, […]; human HDAC4, 68 pM; human HDAC7, 13 pM. After incubation for 60 min at room temperature, 4 μL of HDAC-Glo reagent [HDAC-Glo I/II (Promega) for HDAC6 and HDAC1, HDAC-Glo class IIa (Promega) for HDAC4 and HDAC7] was added to start the reaction. After incubation for 20 min at room temperature, the luminescence was measured by Envision plate reader (PerkinElmer, Waltham, MA, USA). For experiments under the condition of 0 min preincubation, 4 μL of HDAC-Glo reagent was added at first to the 384 well plates including diluted compounds. […] After centrifugation at 1000 rpm for 10 s. and then incubation for 20 min at room temperature, the luminescence was measured by Envision. […] The inhibitory activity of T-518 was expressed as the value of IC50. […]

[1] = tested on: tubulin acetylation in mouse primary neural cultures; test: Tubulin acetylation in mouse primary neural culture (ELISA); format: cell-based; details: DIV6 mouse primary neural culture, 0.1–10 μM, 24 h, ELISA
Method: (§1) T-518, ACY-738, Ricolinostat, and Tubastatin A were synthesized in Takeda. For in vitro cellular experiments, the compounds were solubilized with DMSO and diluted in the culture medium at the indicated concentrations. For in vivo experiments, the compound was reconstituted in 0.5% methylcellulose and administered orally at the indicated doses. After administration, mouse hippocampus was isolated and homogenized in RIPA extraction buffer (50 mM Tris–HCl, 150 mM NaCl, 1% NP-40, 0.5% sodium deoxycholate, and 0.1% SDS, pH 8.0) supplemented with protease and phosphatase inhibitor cocktail (Thermo Fischer, Waltham, MA, USA). The homogenate was centrifuged at 10,000g for 15 min and the supernatant was taken as the RIPA-soluble fraction.
(§2) Primary cortical neurons were prepared from E14 C57BL/6J mouse embryos (CLIEA Japan, Inc., Tokyo, Japan) using papain-containing Neuron Dissociation Solutions (Fujifilm Wako, Tokyo, Japan). Isolated cells were suspended in Neurobasal Medium containing B-27 (Thermo Fisher) and seeded on poly-D-lysine-coated plates (Corning, NY, USA) under 5% CO2 at 37 °C for 6 days in vitro (DIV) prior to evaluation of HDAC6 inhibitors. Cells were treated with HDAC6 inhibitors at the indicated concentrations for 24 h and lysed in RIPA extraction buffer (50 mM Tris–HCl, 150 mM NaCl, 1% NP-40, 0.5% sodium deoxycholate, and 0.1% SDS, pH 8.0) supplemented with protease and phosphatase inhibitor cocktail (Thermo Fisher).
Acetylated α-tubulin and total tubulin levels were measured by sandwich ELISA. Ninety six-well plates (Microlite2+, Thermo) were coated with α-tubulin capture antibody (1:100) by overnight incubation at 4 °C, washed 4 times with PBS'T, treated with blocking buffer (1% bovine serum albumin in PBS'T) at 37 °C for 2 h, and washed another 4 times with PBS’T. Cell or tissues lysate was added to the wells and plates were incubated at 37 °C for 2 h. Plates were then washed 4 times with PBST, incubated with a detection antibody for acetylated tubulin or total α-tubulin diluted in blocking buffer at 37℃ for 1 h, rewashed 4 more times with PBST, incubated with a mouse secondary antibody conjugated to horseradish peroxidase (HRP) for 30 min, wash 4 times again with PBST, and then incubated with chemiluminescent substrate (SuperSignal).

class IIa HDACs = test: HDAC selectivity panel (Reaction Biology Corporation), class IIa; format: biochemical; details: heat map Fig. 2A
Method: Recombinant HDAC6, HDAC7, HDAC1 were obtained from SignalChem Pharmaceutical Inc. (Richmond, BC, Canada), and recombinant human HDAC4 was prepared at Takeda pharmaceutical company. One μL of T-518 diluted with DMSO was added to 75 μL of assay buffer (24 mM Tris–HCl (pH 7.5), 135 mM NaCl, 0.35 mM KCl, 1 mM MgCl2, 0.01% Tween 20, 0.6 mM GSH) in 384 well plates. Two μL of diluted compounds were added to 384 well plates and 2 μL of recombinant HDAC enzymes was added and then centrifuged at 1000 rpm for 10 s. The final concentrations of each HDAC enzyme were as follows, human HDAC1, 170 pM; human HDAC6, […]; human HDAC4, 68 pM; human HDAC7, 13 pM. After incubation for 60 min at room temperature, 4 μL of HDAC-Glo reagent [HDAC-Glo I/II (Promega) for HDAC6 and HDAC1, HDAC-Glo class IIa (Promega) for HDAC4 and HDAC7] was added to start the reaction. After incubation for 20 min at room temperature, the luminescence was measured by Envision plate reader (PerkinElmer, Waltham, MA, USA). For experiments under the condition of 0 min preincubation, 4 μL of HDAC-Glo reagent was added at first to the 384 well plates including diluted compounds. After centrifugation at 1000 rpm for 10 s, 2 μL of HDAC enzyme solution was added. After centrifugation at 1000 rpm for 10 s. and then incubation for 20 min at room temperature, the luminescence was measured by Envision. For determination of inhibitory activity of T-518, the vehicle signal was set as 0% and the signal in the absence of HDAC enzyme was set as 100% inhibition. The inhibitory activity of T-518 was expressed as the value of IC50. The IC50 value and 95% confidence intervals were calculated by XLfit (IDBS, Surrey, UK). The HDAC selectivity panel was conducted by Reaction Biology Corporation (Malvern, PA, USA).

[2] = tested on: Histone H3 acetylation in mouse primary neural cultures; test: Histone H3 acetylation in mouse primary neural culture (Western blotting); format: cell-based; details: DIV6 mouse primary neural culture, 3 and 30 μM, 24 h
Method: as §1, §2
Cell lysate or in vivo protein samples were separated by 10% SDS-PAGE, then electrophoretically transferred to 0.45 μm poly-vinylidene difluoride membranes (Millipore). Membranes were blocked for 1 h in Blocking Reagent (TOYOBO, Osaka, Japan), probed with primary antibodies followed by labeling with HRP-coupled secondary antibodies (Amersham, Piscataway, NJ), and then visualized using chemiluminescence reagent (ECL; Amersham). Images were captured using ImageQuant LAS 4000 (GE healthcare Bio-Sciences, Marlborough, MA, USA). Quantitative densitometric analyses were conducted using ImageQuant TL (GE healthcare Bio-Sciences). The protocol was slightly modified for detection of HDAC6 in cortex. Briefly, cerebral cortex was homogenized in RIPA buffer supplemented with 1 μM microstatin, 1 μM MG115, 40 μM Leupeptin, 100 μM ABSF, and 2 mM sodium orthovanadate, separated by 7.5–15% gradient SDS-PAGE and electrophoretically transferred to 0.45 μm poly-vinylidene difluoride membranes (Millipore). Membranes were blocked for 1 h with ECL Prime Blocking Reagent (Amersham, Piscataway, NJ) prior to immunoblotting, visualization, and densitometry as described above.

O=C(NO)c1cnc(NC2(c3ccccc3)CC2)nc1 [ACY-738]
inhibition of class I HDACs in HDAC panel (class I HDACs): slightly inhibit | effect on tubulin acetylation [1]: significantly and concentration-dependently elevates tubulin acetylation | inhibition of class IIa HDACs in HDAC panel (class IIa HDACs): slightly inhibit | effect on Histone H3 acetylation [2]: increase the acetylation of histone H3

O=C(CCCCCCNC(=O)c1cnc(N(c2ccccc2)c2ccccc2)nc1)NO [Ricolinostat]
inhibition of class I HDACs in HDAC panel (class I HDACs): slightly inhibit | effect on tubulin acetylation [1]: significantly and concentration-dependently elevates tubulin acetylation | inhibition of class IIa HDACs in HDAC panel (class IIa HDACs): slightly inhibit | effect on Histone H3 acetylation [2]: increase the acetylation of histone H3

CN1CCc2c(c3ccccc3n2Cc2ccc(C(=O)NO)cc2)C1 [Tubastatin A]
effect on tubulin acetylation [1]: significantly and concentration-dependently elevates tubulin acetylation | inhibition of class IIa HDACs in HDAC panel (class IIa HDACs): inhibits | effect on Histone H3 acetylation [2]: neither T-518 nor Tubastatin A at 3 and 30 μM demonstrates this activity
